Molecular target: Metabotropic glutamate receptor 2 (Rattus norvegicus) (UniProt P31421)
Assay: Compound was evaluated for the inhibitory activity against cloned Metabotropic glutamate receptor 2

Chain of Metabotropic glutamate receptor 2 (Rattus norvegicus) (P31421 whole entry, looked up): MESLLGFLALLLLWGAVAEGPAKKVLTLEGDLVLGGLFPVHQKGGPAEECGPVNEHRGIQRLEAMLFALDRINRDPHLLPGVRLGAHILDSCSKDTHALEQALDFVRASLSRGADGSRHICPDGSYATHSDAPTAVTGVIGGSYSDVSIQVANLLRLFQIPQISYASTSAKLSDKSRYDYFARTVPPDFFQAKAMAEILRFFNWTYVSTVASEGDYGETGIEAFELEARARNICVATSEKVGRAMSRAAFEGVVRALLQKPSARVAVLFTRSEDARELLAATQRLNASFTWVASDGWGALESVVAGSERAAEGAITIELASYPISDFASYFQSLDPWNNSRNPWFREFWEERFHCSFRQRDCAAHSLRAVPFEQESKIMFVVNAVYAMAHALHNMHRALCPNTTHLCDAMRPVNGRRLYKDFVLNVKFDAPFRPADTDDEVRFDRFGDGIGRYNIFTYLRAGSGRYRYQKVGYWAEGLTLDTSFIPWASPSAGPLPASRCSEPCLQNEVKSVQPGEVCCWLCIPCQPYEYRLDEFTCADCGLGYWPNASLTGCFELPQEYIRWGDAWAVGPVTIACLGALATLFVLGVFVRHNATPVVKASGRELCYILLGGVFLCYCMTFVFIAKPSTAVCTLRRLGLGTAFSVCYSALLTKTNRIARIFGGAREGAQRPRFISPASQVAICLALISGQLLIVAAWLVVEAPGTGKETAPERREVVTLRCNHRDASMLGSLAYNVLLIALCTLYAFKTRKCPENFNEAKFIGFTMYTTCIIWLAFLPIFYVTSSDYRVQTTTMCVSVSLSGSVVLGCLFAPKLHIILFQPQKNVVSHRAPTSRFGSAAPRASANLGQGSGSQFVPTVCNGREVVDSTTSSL

Compound	EC50
Cc1o[nH]c(=O)c1CC[C@H](N)C(=O)O [2-Amino-4-(3-hydroxy-5-methyl-isoxazol-4-yl)-butyric acid(S-homo-AMPA)]	> 1000 µM
Cc1o[nH]c(=O)c1CC[C@@H](N)C(=O)O [(R)-2-Amino-4-(3-hydroxy-5-methyl-isoxazol-4-yl)-butyric acid]	> 1000 µM

Reference: BindingDB's records for doi:10.1021/jm020122x (The Royal Danish School of Pharmacy, 2002)
